Reference: paper PMC9862096, “Interaction of a Homologous Series of Amphiphiles with P-glycoprotein in a Membrane Environment—Contributions of Polar and Non-Polar Interactions” (Pharmaceutics, 2023)

Columns and labels:
[1] = Calculation of local concentrations of the amphiphiles in membrane and aqueous medium from partition coefficients; conditions: for fraction associated with the lipid bilayer of the native membrane: 0.107 mg of protein per mL; for concentration in the aqueous phase: total amphiphile 50 µM, partition to native membranes; for fraction associated with the membranes: IAAP displacement conditions, 1 mg of protein per mL; for fraction of amphiphile in the membrane associated with proteins: low amphiphile concentrations, away from saturation; for concentration associated with the membrane: total concentration 60 µM
Source text: A major limitation of the models used to analyze the effects on P–gp’s ATPase activity and IAAP displacement is the use of global concentrations. Interaction of the amphiphiles with P–gp is considered to occur from the membrane and, therefore, what is relevant is the amphiphile concentration in the lipid bilayer where P–gp is embedded. The importance of using local concentration in the analysis of the interaction of small molecules with membrane proteins has been pointed out before (e.g., [33, 35, 37, 46, 84, 85]), but, unfortunately, it is still overlooked. The local concentrations may be calculated from the partition coefficient of the amphiphiles between the aqueous media and the model membranes with the relevant lipid composition. […] An intermediate affinity is obtained for NBD–LysoMPE in spite of its longer aliphatic chain. This is due to its bigger and much polar (charged) head group. From the partition coefficients one may calculate the local concentration of amphiphile in the membrane for a given total concentration of amphiphile. At the concentration of native membranes used in the ATPase assays (0.107 mg of protein per mL), 2% of the NBD–C4 is associated with the lipid bilayer of the native membrane (see Supplementary Information, Section S10 for details). As expected, for the more lipophilic amphiphiles, the fraction associated with the lipid bilayer increases, being 53% for NBD–C8 and 13% for NBD–LysoMPE. In the IAAP displacement experiments, the amount of native membranes is almost 10 times higher (1 mg of protein per mL), leading to 18% of NBD–C4 associated with the membranes, and 91% and 58% for the case of NBD–C8 and NBD–LysoMPE, respectively.
S10 – Calculation of the local concentration of the amphiphiles in the membrane and in the […]
The concentration of phospholipids (PL) in a solution containing native membranes is calculated from the concentration of protein and the ratio of PLs to prot eins (0.57 g PL/g P , average PL molar mass of 750 g/mol). The volume of the lipid bilayer (VLb) is then calculated considering a density of 1 g/cm3 for the phospholipids.
Typical values for the conditions of the ATPase activity assays are given be low:
The volume occupied by proteins in the membrane (VP) was calculated considering a density of 1.2 g/cm3 (being 8.9 × 10‐5 × VT, and the total volume of native membranes is 1.5 × 10‐4 × VT.
The IAAP displacement assay was performed with a protein concentration of 1 g/L, leading to proportionally higher volumes of the lipid bilayer and proteins.
Knowing the partition coefficients of the ligand one may calculate the fractions in each medium: […]
The fraction of amphiphile in the membrane (lipid bilayer plus membrane proteins), is given by:
MLbP PLKVKV KVWL→→ →b WP WM+ fffVK VK VVK VK VLLL WL=+= =bPP PM , WP L++ ++→→ →→b WP WLbP PWP Lb WPbP P where WMK → is the partition coeff icient obtained experimentally between the aqueous media P and the native membranes.
The above equations are only valid if the system is away from saturation (at low concentrations of amphiphiles relative to the binding agents). At relatively high amphiphile concentrations, the proteins may become saturated, leading to a decrease in the apparent partition coefficient and to an increase in the relative fraction of amphiphile associated with the lipid bilayer.
From the above equations one may calculate directly the concentration of amphiphile in each […]
To evaluate if the aqueous medium is saturated, this concentration sho uld be co mpared with the ligand critical aggregation concentration. P ossible perturbation of the lipid bilayer is best evaluated from the mo la r ratio of lipids to ligand bound (PL:L)

[2] = cited from earlier work

Compound | fraction associated with the lipid bilayer of the native membrane ([1]; ATPase assay conditions) | concentration in the aqueous phase ([1]; ATPase assay conditions) | concentration in the aqueous phase ([1]; IAAP assay conditions) | fraction associated with the membranes [1] | fraction of amphiphile in the membrane associated with proteins [1] | LogKP, association with POPC bilayers [2] | LogKP, partition coefficient for POPC bilayers [2] | concentration associated with the membrane ([1]; ATPase assay conditions) | concentration associated with the membrane ([1]; IAAP assay conditions (membrane 10-fold higher))
CCCCCCCCNc1ccc([N+](=O)[O-])c2nonc12 [NBD–C8] | 53% | 21 µM | 4 µM | 91% | 15% | 4.67 |  |  | 
CCCCCCCCCCCCCC(=O)OCC(O)COP(=O)(O)OCCNc1ccc([N+](=O)[O-])c2nonc12 (centres unmarked) [NBD–LysoMPE] | 13% | 12 µM | 2 µM | 58% |  |  | 4.2 |  | 
CCCCNc1ccc([N+](=O)[O-])c2nonc12 [NBD–C4] | 2% |  |  | 18% | 72% | 2.99 |  | 1.4 µM | 11 µM
